Assay results as given in patent US6500842B1, “8-hydroxy-7-substituted quinolines as anti-viral agents” (Pharmacia & Upjohn Company, priority 1996, dated 2002).
pIC50: −log10 of the molar value.

Legend:
HCMV polymerase = target: T1, HCMV polymerase (Human cytomegalovirus, UniProt P08546); assay: HCMV polymerase assay (scintillation proximity assay); type: biochemical; details: Table 5, pol type CMV
T1 construct: made in house; host or cells: recombinant baculovirus-infected SF-9 cells
Summary of the method: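 Baculovirus/SF-9-expressed purified enzyme in HEPES pH 7.5, KCl, 4.5 mM MgCl2, BSA, with 90 nM ³H-dTTP, ± 2 mM CHAPS; started with 6 nM biotinylated poly(dA)-oligo(dT), 30 min, stopped with EDTA. Incorporation read by streptavidin SPA beads; IC50 by linear regression.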

CMV polymerase = target: T2, CMV polymerase (Human cytomegalovirus, UniProt P08546); assay: modified version of the HCMV polymerase assay (100% DMSO dilution, DTT, different enzyme lot); type: biochemical; details: Table 6; for inhibition at 3.13 µM: Concentration 3.13 μM; for inhibition at 12.5 µM: Concentration 12.5 μM; for pIC50: read-out: IC50
T2 construct: made in house; host or cells: recombinant baculovirus-infected SF-9 cells
T2 sequence (P08546 whole entry): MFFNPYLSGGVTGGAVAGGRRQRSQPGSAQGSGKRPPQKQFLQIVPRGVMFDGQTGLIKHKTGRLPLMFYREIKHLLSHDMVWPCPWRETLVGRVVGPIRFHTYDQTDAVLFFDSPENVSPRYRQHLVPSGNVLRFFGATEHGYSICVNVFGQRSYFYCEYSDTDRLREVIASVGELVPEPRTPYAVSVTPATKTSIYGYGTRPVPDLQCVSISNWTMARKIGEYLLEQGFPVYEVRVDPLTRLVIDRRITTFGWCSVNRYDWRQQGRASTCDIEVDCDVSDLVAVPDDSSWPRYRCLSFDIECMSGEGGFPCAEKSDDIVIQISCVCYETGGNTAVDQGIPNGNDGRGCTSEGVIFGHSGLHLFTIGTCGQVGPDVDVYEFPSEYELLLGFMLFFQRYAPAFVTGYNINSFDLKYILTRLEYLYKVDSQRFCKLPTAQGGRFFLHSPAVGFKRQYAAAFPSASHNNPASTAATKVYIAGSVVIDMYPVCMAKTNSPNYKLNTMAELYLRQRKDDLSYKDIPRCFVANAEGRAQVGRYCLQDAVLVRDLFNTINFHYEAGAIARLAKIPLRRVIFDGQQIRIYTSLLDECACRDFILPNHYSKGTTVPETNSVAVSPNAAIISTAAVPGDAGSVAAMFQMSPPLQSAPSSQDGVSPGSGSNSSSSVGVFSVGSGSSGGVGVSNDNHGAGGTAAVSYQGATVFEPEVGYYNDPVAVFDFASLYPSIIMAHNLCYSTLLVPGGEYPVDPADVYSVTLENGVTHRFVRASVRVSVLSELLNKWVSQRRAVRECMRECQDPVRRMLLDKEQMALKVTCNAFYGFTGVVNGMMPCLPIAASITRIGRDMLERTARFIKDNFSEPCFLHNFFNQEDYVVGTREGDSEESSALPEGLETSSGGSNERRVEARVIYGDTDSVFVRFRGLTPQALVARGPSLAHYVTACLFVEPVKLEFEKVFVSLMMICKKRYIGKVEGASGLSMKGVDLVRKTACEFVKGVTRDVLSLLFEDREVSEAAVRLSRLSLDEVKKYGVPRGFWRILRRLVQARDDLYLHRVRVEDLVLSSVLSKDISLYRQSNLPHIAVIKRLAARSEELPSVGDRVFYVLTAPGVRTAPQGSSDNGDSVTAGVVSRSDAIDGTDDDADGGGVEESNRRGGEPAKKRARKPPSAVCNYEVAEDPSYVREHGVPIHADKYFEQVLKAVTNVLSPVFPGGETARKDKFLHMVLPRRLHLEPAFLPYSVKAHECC
Experimental: The HCMV polymerase assay is performed using a scintillation proximity assay (SPA) as described in several references, such as N. D. Cook, et al., Pharmaceutical Manufacturing International, pages 49-53 (1992); K. Takeuchi, Laboratory Practice, September issue (1992); U.S. Pat. No. 4,568,649 (1986); which are incorporated by reference herein. Reactions are performed in 96-well plates. The assay is conducted in 100 μl volume with 5.4 mM HEPES (pH 7.5), 11.7 mM KCl, 4.5 mM MgCl2, 0.36 mg/ml BSA, and 90 nM ^3H-dTTP. Assays are run with and without CHAPS, (3-[(3-Cholamidopropyl)-dimethylammonio]-1-propane-sulfonate) at a final concentration of 2 mM. HCMV is diluted in enzyme dilution buffer containing 50% glycerol, 250 mM NaCl, 10 mM HEPES (pH 7.5), 100 pg/ml BSA, and 0.01% sodium azide. The HCMV polymerase, which is expressed in recombinant baculovirus-infected SF-9 cells and purified according to literature procedures, is added at 10% (or 10 μl) of the final reaction volume, i.e., 100 μl. Compounds are diluted in 50% DMSO and 10 μl are added to each well. Control wells contain an equivalent concentration of DMSO. Unless noted otherwise, reactions are initiated via the addition of 6 nM biotinylated poly(dA)-oligo(dT) template/primer to reaction mixtures containing the enzyme, substrate, and compounds of interest. Plates are incubated in a 25° C. of 37° C. H2O bath and terminated via the addition of 40 μl/reaction of 0.5 M EDTA (pH 8) per well. Reactions are terminated within the time-frame during which substrate incorporation is linear and varied depending upon the enzyme and conditions used, i.e., 30 min. for HCMV polymerase. Ten μl of streptavidin-SPA beads (20 mg/ml in PBS/10% glycerol) are added following termination of the reaction. Plates are incubated 10 min. at 37° C., then equilibrated to room temperature, and counted on a Packard Topcount. Linear regressions are performed and IC50's are calculated using computer software. Results of the testing of compounds of the present invention in this assay are shown in Tables 1, 2, 5, 9, 10, 11, 13 (except for the last compound which was tested under modified conditions) and 14 below.
A modified version of the above HCMV polymerase assay is performed as described above, but with the following changes: Compounds are diluted in 100% DMSO until final dilution into assay buffer. In the previous assay, compounds are diluted in 50% DMSO. 4.5 mM dithiotherotol (DTT) is added to the polymerase buffer.

T1 sequence (P08546 whole entry): as above

| Compound | melting point | inhibition at 6.25 µM (CMV polymerase; Concentration 6.25 μM) | inhibition at 25 µM (CMV polymerase; Concentration 25 μM) | inhibition at 50 µM (CMV polymerase; Concentration 50 μM) | inhibition at 100 µM (CMV polymerase; Concentration 100 μM) | inhibition at 3.13 µM (CMV polymerase) | inhibition at 12.5 µM (CMV polymerase) | inhibition at 200 µM (CMV polymerase; Concentration 200 μM) | pIC50 (CMV polymerase) | also measured |
| --- | --- | --- | --- | --- | --- | --- | --- | --- | --- | --- |
| O=C(NCc1ccc(Cl)cc1)c1ccc2ccc[n+]([O-])c2c1O [Example 58, N-[(4-Chlorophenyl)methyl]-8-hydroxy-7-quinoline-N-oxide carboxamide] | 178 to 183 °C |  |  |  |  |  |  |  |  | % Inhib (HCMV polymerase; Conc 1.00e-004 M): 65%; % Inhib (HCMV polymerase; Conc 1.30e-005 M): 27.9%; % Inhib (HCMV polymerase; Conc 2.50e-005 M): 40.2%; % Inhib (HCMV polymerase; Conc 3.13e-006 M): −2.9%; % Inhib (HCMV polymerase; Conc 5.00e-005 M): 46.2%; % Inhib (HCMV polymerase; Conc 6.25e-006 M): 2.4%; pIC50 (HCMV polymerase; read-out: IC50): 4.30 |
| Cc1ccc2c(Cl)cc(S(=O)(=O)NCc3ccccn3)c(O)c2n1 [Example 59, 5-Chloro-8-hydroxy-2-methyl-N-(2-pyridinylmethyl)-7-quinolinesulfonamide] | 185 to 186 °C | -6% | 0% | 14% | 31% | -7% | -3% | 43% | < 3.70 |  |
| Cc1ccc2c(Cl)cc(S(=O)(=O)NCCCCc3ccccc3)c(O)c2n1 [Example 61, 5-Chloro-8-hydroxy-2-methyl-N-(4-phenylbutyl)-7-quinoline-sulfonamide] | 84 to 86 °C | 15% | 30% | 30% | 38% | 13% | 23% | 51% | < 3.70 |  |
| Cc1ccc2c(Cl)cc(S(=O)(=O)NCCc3ccccn3)c(O)c2n1 [Example 62, 5-Chloro-8-hydroxy-2-methyl-N-[2-(2-pyridinyl)ethyl]-7-quinolinesulfonamide] | 153 to 155 °C | 3% | 10% | 14% | 33% | 1% | 6% | 42% | < 3.70 |  |
| O=S(=O)(NCCSc1ccccc1)c1cc(Cl)c2ccc(/C=C/c3ccccc3)nc2c1O [Example 63, (E)-5-Chloro-8-hydroxy-2-(2-phenylethenyl)-N-[2-(phenylthio)ethyl]-7-quinolinesulfonamide] | 187 to 193 °C | 34% | 71% | 74% | 92% | 29% | 49% |  | 4.94 |  |

Second part, led by results:

| melting point | inhibition at 6.25 µM (CMV polymerase; Concentration 6.25 μM) | inhibition at 25 µM (CMV polymerase; Concentration 25 μM) | inhibition at 50 µM (CMV polymerase; Concentration 50 μM) | inhibition at 100 µM (CMV polymerase; Concentration 100 μM) | Compound | inhibition at 3.13 µM (CMV polymerase) | inhibition at 12.5 µM (CMV polymerase) | inhibition at 200 µM (CMV polymerase; Concentration 200 μM) | pIC50 (CMV polymerase) | also measured |
| --- | --- | --- | --- | --- | --- | --- | --- | --- | --- | --- |
| 131 to 133 °C | 19% | 32% | 51% | 55% | Cc1ccc2c(Cl)cc(S(=O)(=O)NCCc3ccc(Cl)cc3)c(O)c2n1 [Example 60, 5-Chloro-N-[2-(4-chlorophenyl)ethyl]-8-hydroxy-2-methyl-7-quinolinesulfonamide] | 30% | 31% | 70% | 4.24 |  |
| 147 to 152 °C (dec.) | -8% | -21% | -23% | -23% | Cc1ccc2c(Cl)cc(S(=O)(=O)NCCc3ccc(NS(=O)(=O)c4c(C)noc4C)cc3)c(O)c2n1 [Example 65, 5-Chloro-8-hydroxy-2-methyl-N-[2-[4-[[(3,5-dimethyl-4-isoxazolyl)sulfonyl]amino]phenyl]ethyl]-7-quinoline-sulfonamide] | -8% | -13% | -8% | < 3.70 |  |
| 269 to 272 °C | 41% | 57% | 64% | 86% | Cc1ccc2c(Cl)cc(S(=O)(=O)NCCc3ccc(NS(=O)(=O)c4ccccc4)cc3)c(O)c2n1 [Example 66, 5-Chloro-8-hydroxy-2-methyl-N-[2-[4-[(phenylsulfonyl)-amino]phenyl]ethyl]-7-quinolinesulfonamide] |  |  | 89% |  | % Inhibition (CMV polymerase; Concentration 6.25 μM, 6.25 µM): 30%; % Inhibition (CMV polymerase; Concentration 25 μM, 25 µM): 77%; % Inhibition (CMV polymerase; Concentration 50 μM, 50 µM): 71%; % Inhibition (CMV polymerase; Concentration 100 μM, 100 µM): 91%; % Inhibition (CMV polymerase; Concentration 200 μM, 200 µM): 88% |
